Source: US7098307B2, “Neo-tryptophan” (Mayo Foundation for Medical Education and Research, priority 1998, dated 2006)
Where two headings read alike, the source gives them in different places. Square brackets hold non-standard residues; d marks the D form. Peptide text beside a SMILES is read from it. Ala(indol-4-yl) = N[C@@H](Cc1cccc2[nH]ccc12)C(=O)O; NMeR = CN[C@@H](CCCNC(=N)N)C(=O)O; Tle = CC(C)(C)[C@H](N)C(=O)O

Key:
[1] = Hot plate test (antinociception, % MPE) in rats; conditions: for induction of antinociception (hot plate): intraperitoneal administration (NT64L 1 mg/kg); for ED50 % MPE: intraperitoneal
[2] = Degradation in rat intestinal preparation; assay type: in vitro ADME; conditions: pH 7.4, 37° C., read-out: half-time, Rat Intestinal Preparation (converted)
Method: For intestinal preparations, rats were sacrificed by decapitation, and the small intestines removed. The tissue was washed with ice-cold PBS (10 mM, pH 7.4). About […] of intestinal tissue was added to about 10 mL of PBS and homogenized using a Brinkman polytron homogenizer (setting 6). After homogenization, 10 mL of PBS was added to 10 mL of the intestinal homogenate. […] The supernatant was removed and stored at −20° C. until testing. Immediately before incubation with the polypeptide, the intestinal preparation was filtered through a 0.2 μm filter. Testing procedures were similar to those for the plasma tests.
(§1) For the degradation studies, data were plotted in linear form as a semi-log plot with SigmaPlot for Windows Version 4.00. Linear regression on these plots provided the parameters used to calculate the half-time (t1/2) for degradation of each polypeptide. The correlation coefficient (R) for the linear regression was taken as a measure of the goodness-of-fit.

[3] = Degradation in human plasma (HPLC peak area); assay type: in vitro ADME; conditions: 25% plasma, 37° C., 0.5 mg/mL polypeptide; for half-life at 0.5 mg/mL: human, read-out: half-time, Plasma Human (converted)
From the text: as §1

rat NTR1 [4] = biological target: T1, rat NTR1 (Rattus norvegicus, UniProt P20789); assay: PI turnover ([3H]IP1) in intact CHO-K1 cells, rat NTR1; assay type: cell-based
T1 construct: expressed in transfected cells; host or cells: CHO-K1
Method: (§2) To measure PI turnover, intact CHO-K1 cells were harvested at about 80% confluency. Cells were detached from the petri plates by removal of culture medium followed by incubation of the cellular monolayer for 20 minutes at 37° C. with gentle shaking in a modified Puck's D1 solution containing 2 mM EGTA. […] Briefly, intact CHO cells were prelabeled with D-myo-[^3H]inositol (18.3 Ci/mmol) in the presence of lithium chloride (final concentration, 10 mM). […] For the experiments described herein, the stimulation time was 30 minutes, and the number of CHO cells per assay tube was 1.5×10^5.

[5] = Body temperature (hypothermia) in rats; conditions: for Peak BT change / time of Peak BT change: rats; for induction of hypothermia: intraperitoneal administration (NT64L 1 mg/kg)
human NTR1 [6] = biological target: T2, human NTR1 (Homo sapiens, UniProt P30989); assay: PI turnover ([3H]IP1) in intact CHO-K1 cells, human NTR1; assay type: cell-based
T2 construct: expressed in transfected cells; host or cells: CHO-K1
Method: as §2

human NTR1 [7] = biological target: T2, human NTR1; assay: Competition binding with [3H]NT, membranes of CHO-K1 cells transfected with human NTR1
Method: (§3) CHO-K1 cells were stably transfected with nucleic acid encoding either the human NTR1 or the rat NTR1, and cultured in 150 mm petri plates with 35 mL of Dulbecco-modified Eagle's medium containing 100 μM minimal essential medium nonessential amino acids (GIBCO) supplemented with 5% (v/v) FetalClone II bovine serum product (Hyclone Labs, Logan, Utah). CHO cells (subculture 9–19) were harvested at confluency. Briefly, the medium from each plate was removed by aspiration, and the cells washed with 6 mL of 50 mM Tris-HCl (pH 7.4) and resuspended in 5–10 mL of Tris-HCl by scraping the cells with a rubber spatula. The resuspended cells were placed into a centrifuge tube and collected by centrifugation at 300× g for five minutes at 4° C. in a GPR centrifuge (Beckman Instruments, Fullerton, Calif.). The cellular pellet (in 50 mM Tris-HCl, 1 mM EDTA, pH 7.4) was stored at […] until radioligand binding was performed.
(§4) The supernatant was decanted and discarded, and the cellular pellet was resuspended in 2 mL of Tris-HCl, 1 mM EDTA (pH 7.4) followed by homogenization with a Brinkmann Polytron at setting 6 for ten seconds. Centrifugation was repeated as above and the supernatant was decanted and discarded. The resulting final cellular pellet was resuspended in 50 mM Tris-HCl, lmM EDTA, 0.1% bovine serum albumin, and 0.2 mM bacitracin.
(§5) Incubation was at 20° C. for 30 minutes. Each reaction was terminated by addition of cold 0.9% NaCl (5×1.5 mL) followed by rapid filtration through a GF/B filter strip that had been pretreated with 0.2% polyethylenimine.

rat NTR1 [8] = biological target: T1, rat NTR1; assay: Competition binding with [3H]NT, membranes of CHO-K1 cells transfected with rat NTR1
Method: as §3, §4, §5

[9] = Degradation in rat plasma (HPLC peak area); assay type: in vitro ADME; conditions: 25% plasma, 37° C., 0.5 mg/mL polypeptide, read-out: half-time, Plasma Rat (converted)
From the text: as §1

dopamine D2 receptors = biological target: T3, dopamine D2 receptors (Homo sapiens, UniProt P14416); assay: Radiolabeled competitive binding, human brain tissue, dopamine
T3 construct: Human brain tissue; from tissue; host or cells: human brain tissue

5HT2A receptor = 5HT2A receptor (Homo sapiens, UniProt P28223); assay: Competitive binding with [3H]ketanserin, human brain tissue; conditions: for competition with labeled ketanserin for binding at the 5HT2A receptor: human brain tissue
adrenergic α1 receptors = assay: Radiolabeled competitive binding, human brain tissue, adrenergic α1
α2-adrenergic receptors = assay: Radiolabeled competitive binding, human brain tissue, adrenergic α2
Muscarinic = assay: Radiolabeled competitive binding, human brain tissue, muscarinic

| SMILES | time of Peak % MPE ([1]; 1 mg/kg intraperitoneal, rats) [min] | induction of antinociception (hot plate) [1] | ED50 % MPE ([1]; @ 30 min) [mg/kg] | half-life [2] [min] | half-life at 0.5 mg/mL [3] [days] | EC50 (rat NTR1 [4]) [nM] | Peak BT change ([5]; 1 mg/kg intraperitoneal) | time of Peak BT change ([5]; 1 mg/kg intraperitoneal) [min] | induction of hypothermia [5] | ED50 BT ([5]; intraperitoneal, @ 30 min) [mg/kg] | EC50 (human NTR1 [6]) [nM] | Kd (rat NTR1 [8]) [nM] | Peak % MPE ([1]; 1 mg/kg intraperitoneal, rats) [% @] | half-life at 0.5 mg/mL [9] [days] | Kd (dopamine D2 receptors) [µM] | competition with labeled ketanserin for binding at the 5HT2A receptor (5HT2A receptor) | Kd (human NTR1 [7]) [nM] | further results |
| --- | --- | --- | --- | --- | --- | --- | --- | --- | --- | --- | --- | --- | --- | --- | --- | --- | --- | --- |
| CN[C@@H](CCCNC(=N)N)C(=O)N[C@@H](CCCCN)C(=O)N1CCC[C@H]1C(=O)N[C@@H](Cc1c[nH]c2ccccc12)C(=O)N[C@H](C(=O)N[C@@H](CC(C)C)C(=O)O)C(C)(C)C [Eisai, reference compound] (H-[NMeR]KPW[Tle]L-OH; N-terminus and C-terminus assumed) | 90 | did induce | 0.42 | 1320 | 19.2 | 3.1 | −2.9 @ ° C. | 60 | did induce | 0.26 | 300 |  |  |  |  |  |  | ED50 % MPE ([1]; @ 90 min): 0.08 mg/kg; ED50 BT ([5]; intraperitoneal, @ 90 min): 0.12 mg/kg; peak reduction in body temperature ([5]; intraperitoneal, dose not restated): about 3 °C; weaker at the human NT receptor than at the rat NT receptor, PI turnover (human NTR1 [6]): ~100 fold; weaker at the human NT receptor compared to binding affinity at the rat receptor (human NTR1 [7]; binding): ~20 fold |
| CC(C)C[C@H](NC(=O)[C@@H](NC(=O)[C@H](Cc1cccc2[nH]ccc12)NC(=O)[C@@H]1CCCN1C(=O)[C@H](CCCNC(=N)N)NC(=O)[C@H](N)CCCCN)C(C)(C)C)C(=O)O [NT66L] (H-[dK]RP[Ala(indol-4-yl)][Tle]L-OH; N-terminus and C-terminus assumed) | 120 | did induce | 0.04 |  | 7.08 | 1.9 ± 0.4 | −3.0 @ ° C. | 240 | did induce | 0.45 | 10 | 0.85 ± 0.09 | 100 | 14.6 | 56 | found to compete | 3.7 ± 0.4 | Peak % MPE ([1]; 5 mg/kg intraperitoneal, rats): 100% @; time of Peak % MPE ([1]; 5 mg/kg intraperitoneal, rats): 330 min; ED50 % MPE ([1]; @ 60 min): 0.02 mg/kg; peak % MPE value ([1]; oral, 20 mg/kg): 40%; time of Peak % MPE ([1]; oral, 20 mg/kg): 60 min; Peak BT change ([5]; 5 mg/kg intraperitoneal): −5.0 @ ° C.; time of Peak BT change ([5]; 5 mg/kg intraperitoneal): 120 min; ED50 BT ([5]; intraperitoneal, @ 60 min): 0.18 mg/kg; peak reduction in body temperature (change) ([5]; oral, 20 mg/kg): −1.4 °C; time of peak reduction in body temperature ([5]; oral, 20 mg/kg): 30 min; Kd (5HT2A receptor): 8.7 µM; Kd (adrenergic α1 receptors; read-out: Kd adrenergic α1): 38 µM |
| CC[C@H](C)[C@H](NC(=O)[C@H](Cc1cccc2[nH]ccc12)NC(=O)[C@@H]1CCCN1C(=O)[C@H](CCCNC(=N)N)NC(=O)[C@H](N)CCCCN)C(=O)N[C@@H](CC(C)C)C(=O)O [NT67L] (H-[dK]RP[Ala(indol-4-yl)]IL-OH; N-terminus and C-terminus assumed) | 90 | did induce |  | 46.2 | 4 |  | −1.8 @ ° C. | 120 | did induce |  | 0.83 | 0.21 ± 0.02 | 70 | 5.42 | > 100 | found to compete | 0.61 ± 0.06 | Kd (α2-adrenergic receptors): > 100 µM; half-time, Plasma Human [3]: about 96 hours; reduction in binding affinity compared to NT64L (human NTR1 [7]; NT receptor binding): about six fold lower; Kd (Muscarinic): > 100 µM; Kd (adrenergic α1 receptors; read-out: Kd adrenergic α1 receptors): 6.9 µM |
